Experimental data reported in patent publication US20130115294A1, “STABLE LIQUID OILY READY-TO-USE FORMULATIONS, PREPARATION THEREOF AND USE THEREOF” (CTS CHEMICAL INDUSTRIES LTD., priority 2010, published 2013).
Where a name gives a salt, the structure may show the parent alone. Read-outs that look alike come from different tables or passages of the source.

Experiment: Caco-2 cell monolayer uptake and apparent permeability
Format: in vitro ADME
Conditions: human
Method: Caco-2 monolayer were grown in Dulbecco's modified Eagle's medium supplemented with 10% fetal bovine serum, 1% L-glutamine, 1% nonessential amino acids, and 5% antibiotic-antimycotic solution at 37° C. in humidified air, 5% CO2 atmosphere. The culture medium was replaced every 96 h. The uptake studies were conducted with monolayers (passages 73 to 79) in wells of 2 cm^2 which reach confluency following 4 days of incubation in culture. Prior to the experiments, the culture medium was replaced with transport medium and cell monolayers were subsequently equilibrated for 30 min at 37° C. before the uptake study. The transport medium was Hanks buffer composed of 136.89 mM NaCl, 5.36 mM KCl, 0.34 mM Na2HPO4, 0.44 mM KH2PO4, 0.41 mM MgSO4 7H2O, 19.45 mM glucose, 1.26 mM CaCl2, 0.49 mM MgCl2 6H2O, 4.17 mM NaHCO3, 10 mM HEPES, and the pH was adjusted to 7.4.
The powder (10 mg equivalent to 1 mg enalapril maleate) was weighted dispersed and fully dissolved in 1 ml Hanks buffer. 25 μl from this solution were placed in Caco-2 wells with 975 μl of Hanks buffer resulting in a final concentration of 25 μg/ml of enalapril maleate.
A 100 μl of parent CTS oil formulation was withdrawn and diluted with soybean oil USP to give 1 mg/ml of enalapril maleate.
A 25 μl of the diluted oil solution was placed into the transport medium to give a 25 μg/ml of enalapril maleate in each well (dilution 1:40).
All the uptake experiments were performed over 3 hours at 37° C. Following incubation the transport medium was collected in clean tubes stored at −80° C. up to the quantitative determination of the enalapril levels by HPLC (The HPLC method was provided by CTS). Regarding the cell monolayer in the wells, 1 ml of 0.2% SDS was added to each well to elicit lysis of the cell monolayer. The lysate were collected in a clean tube and enalapril was determined by CTS HPLC technique. […]

Papp at 3 h, 25 μg/ml (Caco-2, pH 7.4, 25 μg/ml enalapril maleate, no intestinal juice, read-out: apparent permeability (Papp)): 25.1 ± 0.5 ×10⁻⁶ cm/s
Papp at 3 h, 25 μg/ml (Caco-2, pH 7.4, printed values are Papp multiplied by 10^6, 25 μg/ml enalapril maleate, 37° C., Hanks buffer pH 7.4, + 0.1% intestinal juice (IJ), read-out: Papp × 10^6 (cm/s) ± s.d): 25.2 ± 4.81 ×10⁻⁶ cm/s
Papp at 3 h, 25 μg/ml (Caco-2, pH 7.4, printed values are Papp multiplied by 10^6, 25 μg/ml enalapril maleate, 37° C., Hanks buffer pH 7.4, no intestinal juice, read-out: Papp × 10^6 (cm/s) ± s.d): 25.1 ± 2.93 ×10⁻⁶ cm/s
Compound: CCOC(=O)[C@H](CCc1ccccc1)N[C@@H](C)C(=O)N1CCC[C@H]1C(=O)O [ENL-solution, enalapril maleate]
